Tests used:
in vivo [1] = settings: mouse, in vivo, po
Description: (§1) With respect to the foregoing test compounds, the acute toxicity was examined by employing mice according to the following method.
(§2) Groups of male mice of the dd type having a body weight of 18 to 22 g, each, group consisting of 5 mice, were tested to determine the acute toxicity. The test compound was orally administered in a dosage indicated in Table 3a in the form suspended in 5% gum arabic liquor. The determination was conducted 7 days after the administration. Further, the LD50 values were calculated according to the method of Lichfield-Wilcoxon.

male mice = test: in vivo; settings: 7 days
Description: as §1, §2

in vivo [2] = settings: rat, po
Adjuvant arthritis = test: Adjuvant arthritis; assay type: in vivo, rats (female, Wister type); settings: Rattus norvegicus, 552 h; 9 mg/Kg per day oral for 25 days; foot volume on 23rd day from adjuvant injection; read-out: Anti-Inflammatory Effect Control Ratio, Adjuvant Arthritis
Description: With respect to the foregoing compounds, anti-inflammatory effects against carragheenin foot edema, ultraviolet erythema and adjuvant arthritis were tested by using rate according to the following methods to obtain results shown below.
The test was conducted according to a modification of the method of B. B. Newbould (Brit. J. Pharmacol., 21, 127 (1963)). Groups of female rats of the Wister type having a body weight of 180 - 240 g, each group consisting of 4 to 8 rats, were tested. 0.05 ml of an adjuvant (formed by suspending 5 mg of dead tuberculous bacillus, Aoyama B strain, in 1 ml of fluid paraffin according to the Japanese pharmacopoeia) was hypodermically injected in the right foot heel of each rat. A test compound was orally administered in a dosage of 9 mg/Kg per day in the form suspended in a 5% gum arabic liquor continuously for 25 days from one day before the injection of the adjuvant. In the case of the control group, only a 5% gum arabic liquor was continuously administered in the same manner. The volume of the right foot was measured 1 day before the injection of the adjuvant and on the 23rd day from the injection of the adjuvant with respect to each group. Thus, the increase of the foot volume was calculated in either the test compound-administered group or the control group, and the ratio of control of the adjuvant arthritis was calculated according to the following formula: [formula] in which C is the increase of the volume of the right foot in the control group and D indicates the increase of the volume of the right foot in the test compound-administered rat group.

inflammatory pain = test: Analgesic effect on inflammatory pain (modified Randall and Selitto); assay type: in vivo, rats (male, Wister type); settings: 100 mg/Kg oral, 1 hour before carragheenin; pain measured 3 hours after injection
Description: Groups of male rats of the Wister type having a body weight of about 150 g were tested, each group consisting of 5 rats. The rats were caused to abstain from food overnight, and 0.05 ml of a 1% carragheenin solution was hypodermically injected into the right hind leg of each rat. […] The test compound was orally administered in a dosage of 100 mg/Kg 1 hour before the injection of carragheenin. [formula]

Carragheenin foot edema = test: Carragheenin foot edema; assay type: in vivo, rats (male, Wister type); settings: Rattus norvegicus; 100 mg/Kg oral, 1 h before carragheenin; foot volume 3 h after injection; read-out: Anti-Inflammatory Effect Control Ratio, Carragheenin Foot Edema
Description: a. Carragheenin food edema
The test was conducted according to the method of C. […] Groups of rats (male rats of the Wister type having a body weight of 140-170 g), each group consisting of 5 to 11 rats, were caused to abstain from food for 16 hours, and a 4% gum arabic suspension of a test compound was orally administered to the rats in an amount of 100 mg/Kg. of the test compounds. Immediately, rats were allowed to drink 5 ml of purified water. […] After 3 hours had passed from the injection, the volume of the right foot was measured again to determine the increase of the volume of the right foot. In control groups, only a 4% gum arabic liquor free of a test compound was orally administered, and subsequent procedures were conducted similarly to determine the increase of the volume of the right foot. The carragheenin foot edema control ratio was calculated according to the following formula: [formula] wherein C indicates the foot volume increase in the control group and D indicates the foot volume increase in the test compound-administered group.

Ultraviolet erythema = test: Ultraviolet erythema; assay type: in vivo, guinea pigs (male, Hartley type); settings: Cavia porcellus, light or radiation study; 10 mg/Kg oral, 1 h before irradiation; read 3 h after irradiation; read-out: Anti-Inflammatory Effect Control Ratio, Ultraviolet Erythema
Description: The test was conducted according to a modification of the method of C. […] Groups of guinea pigs (male guinea pigs of the Hartley type having a body weight of 300 to 450 g), each group consisting of 5 to 10 guinea pigs, were employed for the test. Hairs were removed from backs of the guinea pigs by an electric hair-clipper and a depilatory agent. The guinea pigs were caused to abstain from food for 18 to 19 hours, and a test compound was orally administered in an amount of 10 mg/Kg in the form suspended in a 4% gum arabic liquor. In the case of control groups, only a 4% gum arabic liquor was administered. An adhesive plaster according to the Japanese pharmacopoeia, on which three small holes having a diameter of 5 mm were opened, was applied to the hair-removed portion of the back. […] When 3 hours had passed from the irradiation, the degree of the formation of erythema was determined. One point was given to the guinea pig on which a definite round erythema was formed, a point of 0.5 was given to the guinea pig on which formation of erythema was observed but its contour was not definite, and a point of 0 was given to the guinea pig on which no erythema was formed. Total points were calculated in both the test compound-administered group and the control group, and the control ratio was calculated from these total points. [formula]

## O=C(O)c1ccccc1Nc1c(Cl)cc(Cl)c2ccccc12 [Compound 2, N-(2,4-dichloro-1-naphthyl)anthranilic acid]
In vivo [1]
  LD50 at 168 h: > 12000 mg/kg
Male mice; 1 g/kg oral
  Number of Dead Mice/Number of Mice Tested: 0 / 5
Male mice; 2 g/kg oral
  Number of Dead Mice/Number of Mice Tested: 0 / 5
Male mice; 3 g/kg oral
  Number of Dead Mice/Number of Mice Tested: 0 / 5
Male mice; 4 g/kg oral
  Number of Dead Mice/Number of Mice Tested: 0 / 5
In vivo [2]
  LD50: 8500 mg/kg
Adjuvant arthritis
  inhibition in vivo at 9 mg/kg: 53.5%
Inflammatory pain
  Analgesic Coefficient: 1.70
Carragheenin foot edema
  inhibition in vivo at 100 mg/kg: 27%
Ultraviolet erythema
  inhibition in vivo at 10 mg/kg: 68.9%

From patent publication US3989746A, “Substituted naphthyl anthranilic acids” (Ikeda Mohando Co., Ltd., priority 1972, dated 1976)
